Assays:
[1] = tested on: TGF-α expression in oval cells; assay: Induction of TGF-α positive oval cells of a rat by 3′-MeDAB, anti TGF-α immunohistological staining of liver; format: in vivo
Protocol: Male Fischer rats (F344/N Slc, 6-week old) were used as an animal, and the rats were given with solid feed prepared to contain a hepatic chemical carcinogen 3′-MeDAB in a ratio of 0.06% for four weeks to induce oval cells. NIK-333 was suspended in soybean oil, and a dose of 80 mg/kg was orally administered to each rat for four weeks (once/a day) along with the administration of 3′-MeDAB. To a control group, soybean oil (5 mL/kg) was orally administered. After 4 weeks from the start of the administration of 3′-MeDAB, livers were extirpated under anesthesia. The livers were subjected to 10% formalin fixation and paraffin embedding, and further to immunological staining by using an anti TGF-α antibody. TGF-α expression levels were analyzed under microscope.
FIGS. 1 to 3 are photographs showing inhibitory effects on induction of TGF-α positive oval cells induced by the four-week administration of 3′-MeDAB, when 80 mg/kg/day of NIK-333 was simultaneously administered for four weeks (immunohistological staining by using the anti TGF-α antibody). Similar observations were obtained in other animals which were analyzed at the same time.

hepatoma = conditions: clinical, cited from earlier work
[2] = tested on: TGF-α expression in oval cells; assay: TGF-α expression in oval cells in a rat induced by D-galactosamine hydrochloride, anti TGF-α immunohistological staining; format: in vivo; conditions: 200 mg/kg/day orally for four days; control strongly positive; FIG. 15
Protocol: Male SD rats (Crj/CD (SD), 6-week old) were used as an animal, and D-galactosamine hydrochloride (5 ml/kg) prepared as 200 mg/mL with physiological saline was intraperitoneally administered once to each rat to induce oval cells. NIK-333 was suspended in soybean oil, and a dose of 200 mg/kg was orally administered to each rat for 1 to 6 days. To the control group, soybean oil (2 mL/kg) was orally administered. From the next day to 7 days after the start of the administration, the livers were extirpated under anesthesia with passage of time. The livers were subjected to 10% formalin fixation and paraffin embedding, and further to immunological staining by using an anti TGF-α antibody. TGF-α expression levels were analyzed under microscope.
FIGS. 13 to 15 are photographs showing inhibitory effects on TGF-α expression in oval cells induced by the administration of D-galactosamine hydrochloride, when 200 mg/kg/day of NIK-333 was administered for four days (immunohistological staining using an anti TGF-α antibody). Similar observations were obtained in other animals which were analyzed at the same time.

[3] = tested on: TGF-α expression in non-tumor hepatic tissue; assay: TGF-α expression in non-tumor hepatic tissue of a rat after DEN administration, anti TGF-α immunohistological staining; format: in vivo; conditions: 80 mg/kg/day orally for 14 weeks from one week after 5-week DEN; control strongly positive; FIGS. 6 and 9
Protocol: Male Fischer rats (F344/N Slc, 6-week old) were used as an animal, and the rats were administered with a hepatic chemical carcinogen DEN for 5 weeks in a form of drinking water (concentration: 40 ppm), and then bred with normal drinking water for successive 15 weeks to induce hepatocellular carcinoma. NIK-333 was suspended in soybean oil, and a dose of 80 mg/kg was orally administered to each rat for 14 weeks (once/a day) from one week after the end of the administration of DEN. To a control group, soybean oil (5 mL/kg) was orally administered. After 20 weeks from the start of the administration of DEN, livers were extirpated under anesthesia. The livers were subjected to 10% formalin fixation and paraffin embedding, and further to immunological staining by using an anti TGF-α antibody. TGF-α expression levels were analyzed under microscope.
FIGS. 4 to 6 are photographs showing inhibitory effects on TGF-α expression in a non-tumor hepatic tissue, when the administration was ceased for one week after the 5-week treatment with DEN, and then 80 mg/kg/day of NIK-333 was administered for 14 weeks (immunohistological staining by using an anti TGF-α antibody). Similar observations were obtained in other animals which were analyzed at the same time.

In the case of `CC(C)=CCC/C(C)=C/CC/C(C)=C/C=C/C(C)=C/C(=O)O` [NIK-333, (2E,4E,6E,10E)-3,7,11,15-tetramethyl-2,4,6,10,14-hexadecapentaenoic acid], the “TGF-α observation of oval cells expressed with 3′-MeDAB” value ([1]; 80 mg/kg/day orally for four weeks along with 0.06% 3′-MeDAB feed, control strongly positive, FIG. 3) is given as “weakly positive”, the “number of oval cells with strongly positive TGF-α observation, expressed with 3′-MeDAB” value ([1]; 80 mg/kg/day orally for four weeks along with 3′-MeDAB, versus control, FIG. 12) is given as “reduced” and the “side effect such as dysfunction of liver and those with other retinoids” value (hepatoma; during one-year administration) is given as “almost no side effect”. For the same compound, the “recurrence after radical cure of hepatoma” value (hepatoma; long-term administration for one year) was “significantly suppressed”, the “TGF-α observation of oval cells expressed by D-galactosamine hydrochloride” value [2] was “weakly positive” and the “TGF-α observation in hepatic tissues surrounding the central vein, expressed by DEN” value [3] was “almost negative”.

Source: patent publication US20090069424A1, “TGF-alpha expression inhibitors” (NIKKEN CHEMICALS CO., LTD., priority 2002, published 2009)
